Experiments:
[1] = target: T1, Uncharacterized protein (Sus scrofa) (UniProt I3LIR5); test: Inhibition of porcine kidney trehalase assessed as D-glucose level at 100 uM using maltose as substrate measured after 10 to 30 mins
T1 sequence (whole entry): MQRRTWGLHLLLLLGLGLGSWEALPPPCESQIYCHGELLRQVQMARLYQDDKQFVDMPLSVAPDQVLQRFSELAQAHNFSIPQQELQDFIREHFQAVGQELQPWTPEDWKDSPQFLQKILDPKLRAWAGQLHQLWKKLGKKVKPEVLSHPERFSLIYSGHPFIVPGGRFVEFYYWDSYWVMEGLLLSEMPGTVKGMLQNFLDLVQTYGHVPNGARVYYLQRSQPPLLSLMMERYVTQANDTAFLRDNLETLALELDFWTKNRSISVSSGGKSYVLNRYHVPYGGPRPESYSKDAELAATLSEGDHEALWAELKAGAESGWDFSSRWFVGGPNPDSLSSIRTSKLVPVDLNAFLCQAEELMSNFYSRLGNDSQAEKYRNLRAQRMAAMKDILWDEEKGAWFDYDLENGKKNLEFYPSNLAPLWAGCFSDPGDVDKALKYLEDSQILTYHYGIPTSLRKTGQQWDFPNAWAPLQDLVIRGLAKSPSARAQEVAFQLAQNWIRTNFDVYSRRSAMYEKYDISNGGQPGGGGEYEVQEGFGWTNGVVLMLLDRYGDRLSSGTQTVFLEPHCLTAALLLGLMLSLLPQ

Oryza sativa = test: Inhibition of rice alpha-glucosidase at 100 uM using p-nitrophenyl-glycoside as substrate by spectrophotometric method
[2] = target: T2, Beta-galactosidase (Bos taurus) (UniProt Q58D55); test: (§1) Inhibition of bovine liver beta-galactosidase using p-nitrophenyl-glycoside as substrate by spectrophotometric method; conditions: concentration not given here
T2 sequence (whole entry): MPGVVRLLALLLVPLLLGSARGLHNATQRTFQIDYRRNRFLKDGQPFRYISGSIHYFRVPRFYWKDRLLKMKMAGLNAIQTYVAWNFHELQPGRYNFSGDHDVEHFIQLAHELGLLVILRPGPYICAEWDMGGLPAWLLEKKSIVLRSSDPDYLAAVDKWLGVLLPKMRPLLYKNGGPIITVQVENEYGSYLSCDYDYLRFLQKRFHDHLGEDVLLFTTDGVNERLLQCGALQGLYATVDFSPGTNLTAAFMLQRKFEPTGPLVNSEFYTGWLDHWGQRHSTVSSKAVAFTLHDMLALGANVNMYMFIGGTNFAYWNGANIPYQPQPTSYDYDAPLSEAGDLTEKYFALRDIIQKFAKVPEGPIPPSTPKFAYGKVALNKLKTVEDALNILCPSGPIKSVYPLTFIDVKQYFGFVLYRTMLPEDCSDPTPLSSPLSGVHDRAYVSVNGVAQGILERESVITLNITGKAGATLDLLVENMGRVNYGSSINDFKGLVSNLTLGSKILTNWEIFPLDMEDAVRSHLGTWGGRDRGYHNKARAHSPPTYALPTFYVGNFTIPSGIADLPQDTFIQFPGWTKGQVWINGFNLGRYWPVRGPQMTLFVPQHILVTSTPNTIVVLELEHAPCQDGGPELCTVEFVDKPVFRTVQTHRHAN

Prunus dulcis [3] = test: Inhibition of almond beta-glucosidase at 100 uM using p-nitrophenyl-glycoside as substrate by spectrophotometric method
Homo sapiens [4] = species on record: Homo sapiens; test: Inhibition of human lysosomal beta-glucosidase at 100 uM using 4-methylumbelliferyl-beta-D-glucopyranoside as substrate preincubated for 45 mins followed by substrate addition measured after 30 mins by fluorescence spectrophotometric method
[5] = target: T3, Tissue alpha-L-fucosidase (Bos taurus) (UniProt Q2KIM0); test: Inhibition of bovine kidney alpha-L-fucosidase at 100 uM using p-nitrophenyl-glycoside as substrate by spectrophotometric method
T3 sequence (whole entry): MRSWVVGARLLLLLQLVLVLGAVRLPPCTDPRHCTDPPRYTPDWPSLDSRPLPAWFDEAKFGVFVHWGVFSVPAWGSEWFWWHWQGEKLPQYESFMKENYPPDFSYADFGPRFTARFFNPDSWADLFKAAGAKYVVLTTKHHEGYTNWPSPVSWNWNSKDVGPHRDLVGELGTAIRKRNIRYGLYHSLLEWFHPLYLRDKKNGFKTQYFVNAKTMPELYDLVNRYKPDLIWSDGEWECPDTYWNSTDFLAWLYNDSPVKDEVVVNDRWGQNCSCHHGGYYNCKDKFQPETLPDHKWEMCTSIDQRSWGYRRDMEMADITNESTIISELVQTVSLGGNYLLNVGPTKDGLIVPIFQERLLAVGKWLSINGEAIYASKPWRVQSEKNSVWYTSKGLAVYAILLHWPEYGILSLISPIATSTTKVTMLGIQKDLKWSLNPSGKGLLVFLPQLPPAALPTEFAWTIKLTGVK

[6] = Inhibition of bovine liver beta-glucosidase using p-nitrophenyl-glycoside as substrate by spectrophotometric method; set-up: species or system Bos taurus
Rattus norvegicus = species on record: Rattus norvegicus; test: Inhibition of rat intestinal maltase assessed as D-glucose level at 100 uM using maltose as substrate measured after 10 to 30 mins
Aspergillus niger [7] = test: Inhibition of Aspergillus niger amyloglucosidase assessed as D-glucose level at 100 uM using maltose as substrate measured after 10 to 30 mins
Escherichia coli [8] = test: Inhibition of Escherichia coli beta-glucuronidase at 100 uM using p-nitrophenyl-glycoside as substrate by spectrophotometric method
[9] = Inhibition of Penicillium decumbens alpha-L-rhamnosidase using p-nitrophenyl-glycoside as substrate by spectrophotometric method
Penicillium decumbens [10] = test: Potency index, ratio of 5-epi-deoxyrhamnojirimycin IC50 to compound IC50 for Penicillium decumbens alpha-L-rhamnosidase
[11] = Competitive inhibition of Penicillium decumbens alpha-L-rhamnosidase using p-nitrophenyl-glycoside as substrate by Lineweaver-Burk plot analysis
Penicillium decumbens [12] = test: Inhibition of Penicillium decumbens alpha-L-rhamnosidase at 1000 uM relative to control
Penicillium decumbens [13] = test: Inhibition of Penicillium decumbens alpha-L-rhamnosidase at 1000 uM using p-nitrophenyl-glycoside as substrate by spectrophotometric method
[14] = Inhibition of Aspergillus niger amyloglucosidase assessed as D-glucose level using maltose as substrate measured after 10 to 30 mins
Homo sapiens [15] = species on record: Homo sapiens; test: Inhibition of human lysosomal beta-glucosidase at 1000 uM using 4-methylumbelliferyl-beta-D-glucopyranoside as substrate preincubated for 45 mins followed by substrate addition measured after 30 mins by fluorescence spectrophotometric method
[16] = Inhibition of yeast alpha-glucosidase using p-nitrophenyl-glycoside as substrate by spectrophotometric method; set-up: species or system Saccharomyces cerevisiae
[17] = Inhibition of Helix pomatia beta-mannosidase using p-nitrophenyl-glycoside as substrate by spectrophotometric method
Escherichia coli [18] = test: Inhibition of Escherichia coli beta-galactosidase at 1000 uM using p-nitrophenyl-glycoside as substrate by spectrophotometric method
[19] = target: T4, Alpha-mannosidase (Canavalia ensiformis) (UniProt C0HJB3); test: Inhibition of Jack bean alpha-mannosidase at 1000 uM preincubated for 45 mins followed by addition of p-nitrophenyl-glycoside as substrate measured after 30 mins by fluorescence spectrophometry
T4 sequence (whole entry): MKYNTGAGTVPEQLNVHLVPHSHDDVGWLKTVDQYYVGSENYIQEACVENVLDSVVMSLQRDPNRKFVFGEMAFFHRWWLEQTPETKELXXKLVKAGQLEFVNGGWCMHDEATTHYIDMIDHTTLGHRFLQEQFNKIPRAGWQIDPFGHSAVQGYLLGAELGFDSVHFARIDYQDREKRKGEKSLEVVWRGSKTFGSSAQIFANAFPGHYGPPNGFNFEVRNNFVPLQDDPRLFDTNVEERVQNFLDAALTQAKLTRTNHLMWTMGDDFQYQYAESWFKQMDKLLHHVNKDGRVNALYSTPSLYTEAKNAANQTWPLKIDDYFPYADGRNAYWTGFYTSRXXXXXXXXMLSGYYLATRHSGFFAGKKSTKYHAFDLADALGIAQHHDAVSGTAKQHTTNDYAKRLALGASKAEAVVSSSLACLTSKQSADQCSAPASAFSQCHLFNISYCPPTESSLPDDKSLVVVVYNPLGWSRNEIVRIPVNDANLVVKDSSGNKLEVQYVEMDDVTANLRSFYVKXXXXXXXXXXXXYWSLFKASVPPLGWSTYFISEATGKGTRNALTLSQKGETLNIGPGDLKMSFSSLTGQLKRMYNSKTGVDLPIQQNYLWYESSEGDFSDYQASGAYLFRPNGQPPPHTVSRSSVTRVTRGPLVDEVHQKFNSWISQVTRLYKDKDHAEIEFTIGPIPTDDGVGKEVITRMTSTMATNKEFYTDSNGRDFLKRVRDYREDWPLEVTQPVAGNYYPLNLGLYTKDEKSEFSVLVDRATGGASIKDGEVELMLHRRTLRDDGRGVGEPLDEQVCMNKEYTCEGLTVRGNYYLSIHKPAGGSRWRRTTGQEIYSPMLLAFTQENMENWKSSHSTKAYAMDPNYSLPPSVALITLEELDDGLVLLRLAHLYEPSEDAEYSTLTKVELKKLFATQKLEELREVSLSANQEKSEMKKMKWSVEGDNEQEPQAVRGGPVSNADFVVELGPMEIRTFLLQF

[20] = Inhibition of almond beta-glucosidase using p-nitrophenyl-glycoside as substrate by spectrophotometric method; set-up: species or system Prunus dulcis
Coffea = test: Inhibition of coffee bean alpha-galactosidase at 1000 uM using p-nitrophenyl-glycoside as substrate by spectrophotometric method
Escherichia coli [21] = test: Inhibition of Escherichia coli beta-glucuronidase at 1000 uM using p-nitrophenyl-glycoside as substrate by spectrophotometric method
Beta-galactosidase = target: T5, Beta-galactosidase (Bos taurus, UniProt Q58D55); test: as §1
T5 sequence (Q58D55 whole entry): T2 sequence (whole entry)

Bos taurus = species on record: Bos taurus; test: Inhibition of bovine liver beta-glucosidase at 1000 uM using p-nitrophenyl-glycoside as substrate by spectrophotometric method
[22] = target: T3, Tissue alpha-L-fucosidase (Bos taurus); test: Inhibition of bovine kidney alpha-L-fucosidase at 1000 uM using p-nitrophenyl-glycoside as substrate by spectrophotometric method
[23] = Inhibition of maltase in rat small intestinal brush border membranes assessed as D-glucose level using maltose as substrate measured after 10 to 30 mins
[24] = target: T1, Uncharacterized protein (Sus scrofa); test: Inhibition of porcine kidney trehalase assessed as D-glucose level at 1000 uM using maltose as substrate measured after 10 to 30 mins
Prunus dulcis [25] = test: Inhibition of almond beta-glucosidase at 1000 uM using p-nitrophenyl-glycoside as substrate by spectrophotometric method
Aspergillus niger [26] = test: Inhibition of Aspergillus niger amyloglucosidase assessed as D-glucose level at 1000 uM using maltose as substrate measured after 10 to 30 mins
[27] = Inhibition of rice alpha-glucosidase using p-nitrophenyl-glycoside as substrate by spectrophotometric method; set-up: species or system Oryza sativa
Penicillium decumbens [28] = test: Inhibition of Penicillium decumbens alpha-L-rhamnosidase at 750 uM relative to control
[29] = Inhibition of Penicillium decumbens alpha-L-rhamnosidase

SMILES	IC50 [6]	IC50 [9]	inhibition (Penicillium decumbens [13])	inhibition (Homo sapiens [15])	inhibition (Escherichia coli [21])	IC50 (Beta-galactosidase)	inhibition [22]	IC50 [23]	inhibition [24]	inhibition (Prunus dulcis [25])	inhibition (Aspergillus niger [26])	IC50 [27]	other results
OC[C@H]1[C@H](O)[C@@H](O)[C@@H]2CS/C(=N/CCCCCCCCCc3ccccc3)N12	33 µM	0.87 µM	–	–	–	–	–	–	–	–	–	–	inhibition [1]: < 50%; inhibition (Oryza sativa): < 50%; inhibition [2]: < 50%; inhibition (Prunus dulcis [3]): < 50%; inhibition (Homo sapiens [4]): < 50%; inhibition [5]: < 50%; inhibition (Rattus norvegicus): < 50%; inhibition (Aspergillus niger [7]): < 50%; inhibition (Escherichia coli [8]): < 50%
OC[C@H]1[C@H](O)[C@@H](O)[C@@H]2CS/C(=N/Cc3ccc(Cl)c(Cl)c3)N12	–	0.23 µM	–	–	–	–	–	–	–	–	–	–	Ratio IC50 (Penicillium decumbens [10]): 46; Ki [11]: 0.11 µM
OC[C@@H]1NC[C@H](O)[C@@H]1O	–	–	–	–	–	–	–	–	–	–	–	–	inhibition (Penicillium decumbens [12]): < 50%
OC[C@H]1N[C@H](CO)[C@@H](O)[C@@H]1O	9.7 µM	–	< 50%	< 50%	–	–	–	–	–	–	–	–	IC50 [14]: 116 µM; IC50 [16]: 7.8 µM; IC50 [17]: 721 µM; inhibition (Escherichia coli [18]): < 50%; inhibition [19]: < 50%; IC50 [20]: 10 µM; inhibition (Coffea): < 50%
CCCCCC/N=C1/SC[C@H]2[C@H](O)[C@@H](O)[C@H](CO)N12	–	5.3 µM	–	< 50%	< 50%	599 µM	< 50%	799 µM	< 50%	< 50%	< 50%	418 µM	inhibition (Bos taurus): < 50%
CCCCNC(=S)N1[C@@H](CO)[C@H](O)[C@@H](O)[C@@H]1CO	939 µM	–	< 50%	< 50%	< 50%	473 µM	< 50%	1000 µM	< 50%	< 50%	< 50%	741 µM	–
C[C@@H]1NC[C@H](O)[C@H](O)[C@H]1O	–	–	–	–	–	–	–	–	–	–	–	–	inhibition (Penicillium decumbens [28]): < 50%
CCCCCCCCNC(=S)N1[C@@H](CO)[C@H](O)[C@@H](O)[C@@H]1CO	178 µM	–	< 50%	< 50%	< 50%	266 µM	< 50%	1000 µM	< 50%	< 50%	< 50%	1000 µM	–
C[C@H]1NC[C@H](O)[C@H](O)[C@H]1O	–	10 µM	–	–	–	–	–	–	–	–	–	–	Ki [11]: 4.2 µM; IC50 [29]: 5 µM
